Values after ≈ are worked out from the molar mass of the structure shown. Like-named read-outs stand apart in the source and are kept apart here. Bridge positions count the residues as written; N and C are the ends. Square brackets hold non-standard residues; d marks the D form. Peptide text beside a SMILES is read from it. * marks the point of attachment. Ileψ(thiazoline)Cys = CC[C@H](C)[C@H](N)C1=N[C@H](C(=O)*)CS1; dOrn = NCCC[C@@H](N)C(=O)O; X1 = CC[C@H](C)CCCCC(=O)*; Dab = NCC[C@H](N)C(=O)O
Key:
[1] = system: C. pseudotuberculosis ΔlysX
[2] = system: C. pseudotuberculosis ΔalaDAGS

| Molecule | MIC ΔlysX [1] [µg/mL] | wt/ΔlysX (fold-change) [1] [fold-change] | MIC ΔalaDAGS [2] [µg/mL] | MIC ΔlysX ([1]; 24 h) [µg/mL] | MIC ΔalaDAGS ([2]; 24 h) [µg/mL] | protective advantage conferred by lysX [1] |
| --- | --- | --- | --- | --- | --- | --- |
| Nisin | 2.5 | 32 | 80 | – | – | – |
| CN[C@H](CC(C)C)C(=O)N[C@H]1C(=O)N[C@@H](CC(N)=O)C(=O)N[C@H]2C(=O)N[C@H]3C(=O)N[C@H](C(=O)N[C@H](C(=O)O)c4cc(O)cc(O)c4-c4cc3ccc4O)[C@H](O)c3ccc(c(Cl)c3)Oc3cc2cc(c3O[C@@H]2O[C@H](CO)[C@@H](O)[C@H](O)[C@H]2O[C@H]2C[C@](C)(N)[C@H](O)[C@H](C)O2)Oc2ccc(cc2Cl)[C@H]1O [Vancomycin] | – | 2 | – | 0.375 (≈ 0.259 µM) | 0.75 (≈ 0.518 µM) | – |
| CCCNC[C@]1(O)[C@H](C)O[C@@H](O[C@H]2[C@H](C)[C@@H](O[C@@H]3O[C@H](C)C[C@H](N(C)C)[C@H]3O)[C@](C)(O)C[C@@H](C)CN[C@H](C)[C@@H](O)[C@](C)(O)[C@@H](CC)OC(=O)[C@@H]2C)C[C@@]1(C)OC [Tulathromycin] | 1.25 (≈ 1.55 µM) | 2 | 2.5 (≈ 3.1 µM) | – | – | – |
| CNC(C)C1CCC(N)C(OC2C(N)CC(N)C(OC3OCC(C)(O)C(NC)C3O)C2O)O1 (stereo not shown) [Gentamicin] | 0.078 (≈ 0.163 µM) | – | – | – | – | – |
| CO/N=C(\C(=O)N[C@@H]1C(=O)N2C(C(=O)O)=C(CSc3nc(=O)c(=O)[nH]n3C)CS[C@H]12)c1csc(N)n1 [Ceftriaxone] | – | – | – | – | – | no protective advantage |
| CC[C@H](C)CCCCC(=O)N[C@@H](CCN)C(=O)N[C@H](C(=O)N[C@@H](CCN)C(=O)N[C@H]1CCNC(=O)[C@H]([C@@H](C)O)NC(=O)[C@H](CCN)NC(=O)[C@H](CCN)NC(=O)[C@H](CC(C)C)NC(=O)[C@@H](Cc2ccccc2)NC(=O)[C@H](CCN)NC1=O)[C@@H](C)O [Polymyxin B] (X1-[Dab]T[Dab][Dab][Dab][dF]L[Dab][Dab]T; lactam 4-C (inferred); N-terminus assumed) | – | – | – | 10 (≈ 8.31 µM) | 640 (≈ 532 µM) | – |
| NC[C@H]1O[C@H](O[C@H]2[C@H](O)[C@@H](O[C@H]3O[C@H](CO)[C@@H](O)[C@H](N)[C@H]3O)[C@H](N)C[C@@H]2N)[C@H](O)[C@@H](O)[C@@H]1O [Kanamycin] | 1.25 (≈ 2.58 µM) | 8 | 10 (≈ 20.6 µM) | – | – | – |
| CC[C@H](C)[C@H](NC(=O)CN)C(=O)NCC(=O)N[C@@H](C)C(=O)N[C@H](C(=O)N[C@@H](CC(C)C)C(=O)N[C@@H](CCCCN)C(=O)N[C@H](C(=O)N[C@@H](CC(C)C)C(=O)N[C@H](C(=O)N[C@H](C(=O)NCC(=O)N[C@@H](CC(C)C)C(=O)N1CCC[C@H]1C(=O)N[C@@H](C)C(=O)N[C@@H](CC(C)C)C(=O)N[C@H](C(=O)N[C@@H](CO)C(=O)N[C@@H](Cc1c[nH]c2ccccc12)C(=O)N[C@H](C(=O)N[C@@H](CCCCN)C(=O)N[C@@H](CCCNC(=N)N)C(=O)N[C@@H](CCCCN)C(=O)N[C@@H](CCCNC(=N)N)C(=O)N[C@@H](CCC(N)=O)C(=O)N[C@@H](CCC(N)=O)C(N)=O)[C@@H](C)CC)[C@@H](C)CC)[C@@H](C)O)[C@@H](C)O)C(C)C)C(C)C [Melittin] | – | >4 | – | 10 (≈ 3.51 µM) | >40 | – |
| CC[C@H](C)[C@H](N)C1=N[C@H](C(=O)N[C@@H](CC(C)C)C(=O)N[C@H](CCC(=O)O)C(=O)N[C@H](C(=O)N[C@H]2CCCCNC(=O)[C@H](CC(N)=O)NC(=O)[C@@H](CC(=O)O)NC(=O)[C@H](Cc3cnc[nH]3)NC(=O)[C@@H](Cc3ccccc3)NC(=O)[C@H]([C@@H](C)CC)NC(=O)[C@@H](CCCN)NC2=O)[C@@H](C)CC)CS1 [Bacitracin] ({Ileψ(thiazoline)Cys}-L[dE]IK[dOrn]I[dF]H[dD]N; lactam 4-C (inferred); N-terminus assumed) | – | 2 | – | 3.2 (≈ 2.25 µM) | 6.4 (≈ 4.5 µM) | – |
